Test results as given in patent US20180188266A1, “Characterization of Type 1 Collagen Synthesis By Fluorescence Imaging and Related Drug Screening Technique” (Florida State University Research Foundation, Inc., priority 2017, published 2018).

Test system: Type 1 collagen synthesis
Assay: Confocal fluorescence imaging of Type 1 collagen synthesis in cells expressing COLa1(I)/mTagBFP2 + WT COLa2(I)/mEmerald
Format: cell-based
Conditions: fixed human lung fibroblasts expressing COLa1(I)/mTagBFP2+WT COLa2(I)/mEmerald; treated for 24 hours vs untreated cell
Method: Three combinations of adenoviruses were used: • COLα1(I)/mTagBFP2 and WT COLα2(I)/mEmerald: images normal, regulated Type 1 collagen synthesis; • COLα1(I)/mTagBFP2 and MUT COLα2(I)/mEmerald: images collagen synthesis without regulation; and • COLα1(I)/mTagBFP2 and COLα2(I)/mEmeraldΔC: images absence of productive synthesis.
Adenoviruses were mixed in a ratio determined by the viral titer and added to human lung fibroblasts in culture. After 48 hours the cells were either fixed in 3.7% formalin, mounted on glass slides and imaged or they were directly imaged as live cells.
Confocal imaging of cells was performed either by Zeiss LSM 880 confocal microscope or Nikon Eclipse Ti laser spin disk confocal microscope in blue and green channels.
The drug used in the confocal microscopy imaging experiments was compound 60D17 of U.S. Pat. No. 8,729,090, which is incorporated by reference. Compound 60D17 has the following formula.

Structure (SMILES): COC(=O)CNC(=O)c1cc2c(=O)n3cccc(C)c3nc2n1C [compound 60D17]
- Effect on Type 1 collagen biosynthesis (confocal images, FIG. 4): perturbed
